1 compound from the NIST ThermoML archive (doi:10.1016/j.tca.2011.02.016) can be followed below.

By mass density is commonly meant the mass of a sample divided by its volume.

Data set [1] can be described thus: molar heat capacity at constant pressure. To be noted: 298.15 K; 101.33 kPa; Liquid; Small sample (50 mg) DSC.
The conditions of data set [2]: 298.15 K; 101.33 kPa; Liquid; Pycnometric method.

Numbers after ± are expanded uncertainties.

Consider `Cn1cc[n+](CCO)c1.N#C[N-]C#N` [3-(2-hydroxyethyl)-1-methyl-1H-imidazol-3-ium dicyanoazanide], for which, in data set [1], the “molar heat capacity at constant pressure” value is recorded as 231.85 ± 3.9 J/K/mol. Besides, in data set [2], the mass density worked out at 1120 ± 10 kg/m3.
